In patent publication US5869482A, “Dipyridio[2,3-b:3',2'-] azepines and their use in the prevention or treatment of HIV infection” (priority 1997, dated 1999):

Tests used:
[1] = biological target: T1, HIV-1 RT (P236L) mutant (Human immunodeficiency virus type 1 (BRU ISOLATE), UniProt P03367, P835L); assay type: biochemical, Human Immunodeficiency Virus (HIV-1); conditions: 1 μM compound; RNA-dependent DNA polymerase activity
T1 construct: P236L mutant

[2] = biological target: T2, HIV-1 RT (L100I) mutant (Human immunodeficiency virus type 1 (BRU ISOLATE), UniProt P03367, L699I); assay type: biochemical, Human Immunodeficiency Virus (HIV-1); conditions: 1 μM compound; RNA-dependent DNA polymerase activity
T2 construct: L100I mutant

[3] = biological target: T3, HIV-1 RT (Y181C) mutant (Human immunodeficiency virus type 1 (BRU ISOLATE), UniProt P03367, Y780C); assay: biochemical; set-up: species or system Human Immunodeficiency Virus (HIV-1); conditions: 1 μM compound; RNA-dependent DNA polymerase activity; read-out: RT (Y181C) % inh. (1 μM)
T3 construct: Y181C by site-directed mutagenesis

[4] = biological target: HIV-1 reverse transcriptase, wild type (WT) (Human immunodeficiency virus type 1 (BRU ISOLATE), UniProt P03367); assay: Reverse Transcriptase (RT) assay, wild type enzyme; assay type: biochemical, Human Immunodeficiency Virus (HIV-1), LAV strain; conditions: 1 μM compound; RNA-dependent DNA polymerase activity; read-out: RT (WT) % inh. (1 μM)
Description: Utilizing the Reverse Transcriptase (RT) Assay described below, compounds can be tested for their ability to inhibit the RNA-dependent DNA polymerase activity of HIV-1 RT.
Among the enzymes for which Human Immunodeficiency Virus (HIV-1) encodes is a reverse transcriptase (1), so-named because it transcribes a DNA copy from an RNA template. This activity can be quantitatively measured in a cell-free enzyme assay, which has been previously described (2), and is based upon the observation that reverse transcriptase is able to use a synthetic template [poly r(C) primed with oligo d(G)] to transcribe a radio-labelled, acid-precipitable DNA strand utilizing ^3 H-dGTP as a substrate. The assay described below utilizes the wild type (WT) enzyme, which is the predominant form of the enzyme observed in patients infected with HIV-1.
Reverse transcriptase enzyme from the LAV strain of Human Immunodeficiency Virus (HIV-1) (1) was isolated from the bacterial strain JM109 (3) expressing the DNA clone pBRTprtl+ (2) which is under the control of the lac promotor in the expression vector pIBI21 (4). […] At that time the repressor inhibitor IPTG (isopropyl β-D-thiogalactopyranoside) is added to 0.5 mM, and the mixture is incubated for 2 additional hours. […] The cells are lysed by the addition of 0.2% NP-40 and brought to 1M NaCl. […]

[5] = biological target: T4, HIV-1 RT (K103N) mutant (Human immunodeficiency virus type 1 group M subtype B, UniProt P03367, K702N); assay: biochemical; set-up: species or system Human Immunodeficiency Virus (HIV-1); conditions: 1 μM compound; RNA-dependent DNA polymerase activity; read-out: RT (K103N) % inh. (1 μM)
T4 construct: Reverse transcriptase enzyme from the LAV strain; made in house; host or cells: E. coli JM109 with clone pBRTprtl+ in vector pIBI21 (stated for the wild-type enzyme; inferred for the K103N mutant)

Compound | RT (P236L) % inh. (1 μM) [1] | RT (L100I) % inh. (1 μM) [2] | inhibition at 1 µM [3] | inhibition at 1 µM [4] | inhibition at 1 µM [5]
CCN1c2ncccc2C=Cc2cccnc21 [Example 1, 11-Ethyl-dipyrido[2,3-b:3',2'-f]azepine] | 99% | 81% | 53% | 98% | 73%
C1=Cc2cccnc2N(C2CC2)c2ncccc21 [Example 2, 11-Cyclopropyl-dipyrido[2,3-b:3',2'-f]azepine] | 98% | 80% | 41% | 97% | 55%
